ChEMBL document CHEMBL1201862, “PubChem BioAssay data set” (2004)
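Dose response: 5 concentrations. Exposure: 48 h. Format: 96-well plates. Endpoint: linear interpolation; highest concentration if not reached. GI50 is the concentration that inhibits growth by half.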 Activity calls are given as the source filed them. Cut-off read from the data, not from the text of the source: active = GI50 up to about 1.1 µM and inactive = higher.

Key:
Experiment in all cases: NCI-60 cell line screen, 48 h
A549 = tested on: A549
ACHN = tested on: ACHN
CAKI-1 = tested on: CAKI-1
CCRF-CEM = tested on: CCRF-CEM
HCT-116 = tested on: HCT-116
HL-60 = tested on: HL-60
IGROV-1 = tested on: IGROV-1
MDA-N = tested on: MDA-N
MOLT-4 = tested on: MOLT-4
NCI-H460 = tested on: NCI-H460
OVCAR-5 = tested on: OVCAR-5
RXF 393 = tested on: RXF 393
SF-539 = tested on: SF-539
SK-MEL-2 = tested on: SK-MEL-2
SNB-19 = tested on: SNB-19
UO-31 = tested on: UO-31
HOP-92 = tested on: HOP-92
SK-MEL-28 = tested on: SK-MEL-28

Measured: GI50

Cc1ccc(Cl)c2c(=O)c3ccc(N)cc3sc12
inactive: A549 24.9 µM | ACHN 21.4 µM | CAKI-1 24.9 µM | CCRF-CEM 14.7 µM | HCT-116 16.9 µM | HL-60 2.99 µM | IGROV-1 10 µM | MDA-N 30.1 µM | MOLT-4 11.7 µM | NCI-H460 31.9 µM | OVCAR-5 28 µM | RXF 393 22.1 µM | SF-539 16 µM | SK-MEL-2 20.1 µM | SNB-19 27.9 µM | UO-31 13.9 µM

N#Cc1c(=O)c2ccccc2n2ccccc12
inactive: A549 29.8 µM | ACHN > 100 µM | CAKI-1 > 100 µM | CCRF-CEM > 100 µM | HCT-116 > 100 µM | HL-60 > 100 µM | HOP-92 > 100 µM | IGROV-1 > 100 µM | MDA-N > 100 µM | NCI-H460 > 100 µM | SK-MEL-28 > 100 µM | SK-MEL-2 13.4 µM | SNB-19 83.6 µM | UO-31 97.9 µM

COC(=O)CCc1ccc2c(c1)CC1(C2)Cc2ccc3c(c2C1)CCC3 (centres undefined)
inactive: A549 53.5 µM | ACHN > 100 µM | CCRF-CEM 61.7 µM | HCT-116 > 100 µM | HL-60 30.3 µM | HOP-92 54 µM | IGROV-1 > 100 µM | MDA-N 87.9 µM | MOLT-4 38.5 µM | NCI-H460 > 100 µM | OVCAR-5 > 10 µM | RXF 393 49.1 µM | SF-539 > 100 µM | SK-MEL-28 > 100 µM | SNB-19 > 100 µM | UO-31 32.4 µM

O=C(NCCCCCCNC(=O)c1cc(-c2ccccc2)nc2ccccc12)c1cc(-c2ccccc2)nc2ccccc12
inactive: A549 > 100 µM | ACHN > 100 µM | CAKI-1 > 100 µM | CCRF-CEM > 100 µM | HCT-116 > 100 µM | HL-60 > 100 µM | HOP-92 > 100 µM | IGROV-1 34.8 µM | MDA-N > 100 µM | MOLT-4 > 100 µM | NCI-H460 > 100 µM | OVCAR-5 > 100 µM | RXF 393 > 100 µM | SF-539 > 100 µM | SK-MEL-28 > 100 µM | SNB-19 > 100 µM | UO-31 > 100 µM

Cc1ccc(Nc2cn(COCc3ccccc3)c(=O)[nH]c2=O)cc1
inactive: A549 > 100 µM | ACHN 37 µM | CAKI-1 65.5 µM | CCRF-CEM > 100 µM | HCT-116 > 100 µM | HL-60 > 100 µM | HOP-92 > 100 µM | IGROV-1 45.6 µM | MDA-N > 100 µM | MOLT-4 > 100 µM | NCI-H460 > 100 µM | OVCAR-5 > 100 µM | RXF 393 > 100 µM | SK-MEL-28 > 100 µM | SNB-19 75.2 µM | UO-31 > 100 µM

[N-]=[N+]=NC1CC(n2ccc(N)nc2=O)OC1COP(=O)(O)OP(=O)(O)OP(=O)(O)O (centres undefined)
inactive: A549 > 100 µM | ACHN > 100 µM | CAKI-1 > 100 µM | CCRF-CEM > 100 µM | HCT-116 > 100 µM | HL-60 > 100 µM | IGROV-1 > 100 µM | MDA-N > 100 µM | MOLT-4 > 100 µM | NCI-H460 > 100 µM | OVCAR-5 > 100 µM | RXF 393 > 100 µM | SF-539 > 100 µM | SK-MEL-28 > 100 µM | SNB-19 > 100 µM | UO-31 > 100 µM

COC(=O)c1c(C)cccc1C1CN=NC12Cc1ccc(C)c(C)c1C2=O (centres undefined)
inactive: A549 18.2 µM | ACHN 27.2 µM | CAKI-1 > 100 µM | CCRF-CEM 24.3 µM | HCT-116 14.8 µM | HL-60 8.59 µM | HOP-92 28.6 µM | IGROV-1 46.2 µM | MDA-N 45.2 µM | MOLT-4 12.2 µM | NCI-H460 22.8 µM | OVCAR-5 > 100 µM | RXF 393 20.9 µM | SF-539 68.9 µM | SK-MEL-28 > 100 µM | SNB-19 50.9 µM | UO-31 42.4 µM

CC1=CC2(O)OC3(CC2=C(C)C)C(C)CCC13 (centres undefined)
inactive: A549 > 100 µM | ACHN > 100 µM | CAKI-1 > 100 µM | CCRF-CEM > 100 µM | HCT-116 > 100 µM | HL-60 > 100 µM | HOP-92 > 100 µM | IGROV-1 > 100 µM | MDA-N > 100 µM | MOLT-4 > 100 µM | OVCAR-5 > 100 µM | RXF 393 > 100 µM | SF-539 > 100 µM | SK-MEL-2 > 100 µM | SNB-19 > 100 µM | UO-31 44.4 µM

c1ccc2c(c1)nc1n2CCCn2ccnc2-1
inactive: A549 > 100 µM | ACHN 73.6 µM | HCT-116 > 100 µM | HOP-92 > 100 µM | IGROV-1 > 100 µM | MDA-N > 100 µM | MOLT-4 > 100 µM | NCI-H460 > 100 µM | OVCAR-5 > 100 µM | RXF 393 > 100 µM | SF-539 96.2 µM | SK-MEL-28 > 100 µM | SK-MEL-2 > 100 µM | SNB-19 > 100 µM | UO-31 99.3 µM
active: HL-60 0.225 µM

CCOC(=O)C1C/C(C)=C(/C)SCCCS1 (centres undefined)
inactive: A549 > 100 µM | ACHN > 100 µM | HCT-116 50.2 µM | HL-60 28.6 µM | HOP-92 > 100 µM | IGROV-1 > 100 µM | MDA-N > 100 µM | MOLT-4 38.2 µM | NCI-H460 > 100 µM | OVCAR-5 > 100 µM | RXF 393 > 100 µM | SF-539 > 100 µM | SK-MEL-28 > 100 µM | SK-MEL-2 > 100 µM | SNB-19 > 100 µM | UO-31 > 100 µM

CCOC(=O)N1CCN(c2ccc3ccc(N)nc3n2)CC1
inactive: A549 > 100 µM | ACHN > 100 µM | CAKI-1 > 100 µM | CCRF-CEM 50.1 µM | HCT-116 > 100 µM | HL-60 > 100 µM | HOP-92 > 100 µM | IGROV-1 > 100 µM | MDA-N > 100 µM | MOLT-4 74.1 µM | NCI-H460 71.6 µM | OVCAR-5 > 100 µM | SF-539 > 100 µM | SK-MEL-28 > 100 µM | SK-MEL-2 > 100 µM | SNB-19 > 100 µM | UO-31 > 100 µM

O=C(O)Cn1ccc(=O)c2c([N+](=O)[O-])cccc21
inactive: A549 > 100 µM | ACHN > 100 µM | CAKI-1 > 100 µM | CCRF-CEM > 100 µM | HCT-116 > 100 µM | HL-60 > 100 µM | IGROV-1 > 100 µM | MDA-N > 100 µM | MOLT-4 > 100 µM | NCI-H460 > 100 µM | OVCAR-5 > 100 µM | SF-539 > 100 µM | SK-MEL-28 > 100 µM | SK-MEL-2 > 100 µM | SNB-19 > 100 µM | UO-31 > 100 µM

CSc1c(C#N)c(=O)[nH]c2[nH]nc(C)c12
inactive: A549 > 100 µM | CAKI-1 22.1 µM | CCRF-CEM > 100 µM | HCT-116 33.3 µM | HL-60 > 100 µM | MDA-N > 100 µM | MOLT-4 > 100 µM | NCI-H460 > 100 µM | OVCAR-5 > 100 µM | RXF 393 > 100 µM | SF-539 > 100 µM | SK-MEL-28 > 100 µM | SK-MEL-2 > 100 µM | SNB-19 > 100 µM | UO-31 > 100 µM

COC1/C=C\OC2(C)Oc3c(C)c(O)c4c(O)c(c(/C=N\OCCCc5ccccc5)c(O)c4c3C2=O)NC(=O)/C(C)=C\C=C/C(C)C(O)C(C)C(O)C(C)C(OC(C)=O)C1C (centres undefined)
inactive: A549 3.83 µM | ACHN 2.56 µM | CAKI-1 4.32 µM | CCRF-CEM 3.08 µM | HCT-116 2.3 µM | HL-60 3.01 µM | HOP-92 2.15 µM | IGROV-1 2.39 µM | MDA-N 3.44 µM | MOLT-4 3.46 µM | NCI-H460 3.49 µM | OVCAR-5 6.85 µM | RXF 393 2.9 µM | SF-539 2.93 µM | SK-MEL-28 2.06 µM | SK-MEL-2 2.18 µM | SNB-19 6.32 µM

O=C(CCl)Nc1cc(Cl)c(Cl)cc1Cl
active: CCRF-CEM 0.966 µM
inactive: A549 2.35 µM | ACHN 2.22 µM | CAKI-1 2.96 µM | HCT-116 1.59 µM | HL-60 2.82 µM | IGROV-1 1.81 µM | MDA-N 1.69 µM | MOLT-4 > 10 µM | NCI-H460 1.73 µM | OVCAR-5 2.12 µM | RXF 393 2.65 µM | SF-539 1.67 µM | SK-MEL-28 2.32 µM | SK-MEL-2 1.64 µM | SNB-19 2.27 µM

NCCNCC(O)CO (centres undefined)
inactive: A549 > 100 µM | ACHN > 100 µM | CAKI-1 > 100 µM | HCT-116 > 100 µM | HL-60 > 100 µM | HOP-92 > 100 µM | IGROV-1 > 100 µM | MDA-N > 100 µM | MOLT-4 > 100 µM | NCI-H460 > 100 µM | OVCAR-5 > 100 µM | RXF 393 > 100 µM | SF-539 > 100 µM | SK-MEL-28 > 100 µM | SK-MEL-2 > 100 µM | SNB-19 > 100 µM | UO-31 > 100 µM

Cc1cccc(-c2cc(O)c3cccnc3n2)c1
active: CCRF-CEM 0.935 µM | HCT-116 0.385 µM | HL-60 0.128 µM | IGROV-1 0.914 µM | MDA-N 0.0431 µM | MOLT-4 0.902 µM | NCI-H460 0.475 µM | SF-539 0.92 µM | SK-MEL-28 0.406 µM
inactive: A549 1.34 µM | ACHN 18.7 µM | HOP-92 88.3 µM | OVCAR-5 2.96 µM | RXF 393 6.24 µM | SNB-19 1.69 µM | UO-31 > 100 µM
